Source: US4340672A, “Enzymatic synthesis of β-lactam antibacterials” (Shionogi & Co., Ltd., priority 1979, dated 1982)
≈ marks a conversion by molar mass, not a printed value.

Legend:
[1] = tested on: B. Circulans M-1123-5 acylase; experiment: Selectivity of the acylases; conditions: ester (I) 45 mg, amine (II) 9 mg, 37° C., 3 hours 45 minutes; TLC and paper-disc assay with Bacillus subtilis PCI-219
[2] = tested on: A. globiformis M-345-2 acylase; experiment: Selectivity of the acylases; conditions: ester (I) 45 mg, amine (II) 9 mg, 37° C., 3 hours 45 minutes; TLC and paper-disc assay with Bacillus subtilis PCI-219
[3] = tested on: A. fragerum M-2183-1 acylase; experiment: Selectivity of the acylases; conditions: ester (I) 45 mg, amine (II) 9 mg, 37° C., 3 hours 45 minutes; TLC and paper-disc assay with Bacillus subtilis PCI-219
Solubility in water = format: physicochemical; conditions: read-out: concentration that can dissolve in water
[4] = tested on: acylase of Xanthomonas axonopodis M-621-1 on Sepharose 4B; experiment: Cephalexin production with immobilized enzyme of Xanthomonas axonopodis M-621-1; format: biochemical; conditions: ester 45 mg, 7-aminodeacetoxycephalosporanic acid 3 mg, 37° C., 3.5 hours
[5] = tested on: acylase of Micrococcus roseus M-1054-1 (broth); experiment: Cephalothin production with broth of Micrococcus roseus; format: biochemical; conditions: 3.5 hours at 37° C.; paper disc assay against Bacillus subtilis PCI-219
Experimental: The broth is adjusted to pH 7.0. The broth (4.5 ml) is added to a solution of 7-ACA (3%) and (i) 2-thienylacetic acid glycerin ester, (ii) 2-thienylacetic acid tetraethyleneglycol ester or (iii) 2-thienylacetic acid octaethyleneglycol ester in 0.2 M-phosphate buffer (0.5 ml) to react for 3.5 hours at 37° C. The reaction mixture is centrifuged to remove cells and the supernatant is assayed by paper disc assay method against Bacillus subtilis PCI-219 to the following values of produced cephalothin.

[6] = tested on: immobilized enzyme (acylase) of Bacillus circulans M-1123-5; experiment: Reactivity of TA esters by column method; format: biochemical; conditions: 7-ACA 5 mg/ml, 37° C., 25 ml/hr
Experimental: Concentration of CET in the eluate is determined by assaying antibacterial activity against Bacillus subtilis PCI-219 to estimate the yield on Table 3 in the laminar flow state. (Immobilization of purified enzyme)

[7] = tested on: immobilized enzyme (acylase) of Bacillus circulans M-1123-5 on Sepharose 4B; experiment: Reactivity of TA esters by batch process; format: biochemical; conditions: 7-ACA to CET, 7-ACA 30 mg in 10 ml, pH 7.0, 37° C., 3 hours
Experimental: To a solution of 7-ACA (30 mg) and TA-esters (given amount) in M/10-phosphate buffer (pH 7.0) (10 ml) is added an immobilized enzyme (0.9 g) on Sepharose 4B, and the mixture is stirred at 37° C. for 3 hours. Concentration of CET in the reaction mixture is estimated by assaying antibacterial activity against Bacillus subtilis PCI-219 and conversion rate from 7-ACA to CET is calculated.

[8] = tested on: purified acylase of Bacillus circulans M-1123-5 immobilized on agar gel; experiment: Acylating capacity of immobilized pure enzyme; format: biochemical
[9] = tested on: immobilized enzyme from Arthrobacter globiformis M-345-2; experiment: Acylating capacity of immobilized enzyme from Arthrobacter globiformis M-345-2; format: biochemical
[10] = tested on: acylase of Micrococcus luteus M-331-1 (immobilized cells); experiment: CET production with immobilized cells in acrylamide gel; format: biochemical; conditions: 7-ACA 1 mg/ml
Experimental: In a solution of acrylamide monomer (750 mg) and N,N'-methylenebisacrylamide (40 mg) in M/20-phosphate buffer (pH 7.0) (4 ml) are suspended said dry cells (1 g). To this solution is added 5% 3-dimethylaminopropionitrile (0.5 ml) and aqueous 1% potassium persulfate (0.5 ml) and the mixture is allowed to stand at 25° C. for 30 minutes. Produced gel is crushed with blender and produced particles over 100 mesh are collected, filled in a 10 mm .phi. tube, and washed with M/20-phosphate buffer (pH 7.0) to give a column (10.2 ml) of immobilized cells.

[11] = tested on: acylase of Micrococcus luteus M-331-1 (dried cells); experiment: CET production with dried cells of Micrococcus luteus M-331-1; format: biochemical; conditions: dried cells 26 mg, 3 hours, 37° C., pH 7.0
Experimental: The broth is added into an aqueous medium (100 volumes) of the same composition as above, and incubated for 3 days at 28° C.
The broth is neutralized with hydrochloric acid to pH 7, centrifuged to collect the cells, washed with water and dried by washing with acetone to give 1.302 g of dry cells.
The dried cells (26 mg) are suspended in water (1.5 ml), diluted with a solution of 7-ACA (4 mg/ml) and TA-tetraester (20 mg/ml) in M/5-phosphate buffer (pH 7.0) (0.5 ml) and shaken for 3 hours at 37° C. to produce CET at a conversion rate of about 30%. (Immobilized cell entrapted in acrylamide gel)

[12] = tested on: acylase of Bacillus circulans M-1123-5 absorbed on Celite 560; experiment: Acylating capacity of absorbed enzyme on Celite 560; format: biochemical
[13] = TA-tetraester 12.5 mg/ml, pH 7.0
[14] = TA-tetraester 18.8 mg/ml, pH 7.0

SMILES: COCCOCCOCCOCCOCCOC(=O)Cn1cnnn1
- product detected and determined, B. Circulans M-1123-5 [1]: 55.7
- product detected and determined, A. globiformis M-345-2 [2]: 43.7
- product detected and determined, A. fragerum M-2183-1 [3]: 54.9

SMILES: COCCOCCOC(=O)C(N)c1ccccc1 (stereo not shown)
- product detected and determined, B. Circulans M-1123-5 [1]: 29.6
- product detected and determined, A. globiformis M-345-2 [2]: 10.6

SMILES: COC(=O)Cc1cccs1 [2-thienylacetic acid methyl ester]
- solubility (Solubility in water): 10000 µg/mL (≈ 64 mM)

SMILES: COCCOCCOC(=O)[C@H](N)c1ccccc1 [D-phenylglycin diethyleneglycol ester methyl ether]
- conversion rate to cephalexin [4]: 26.3%

SMILES: O=C(Cc1cccs1)OCC(O)CO (stereo not shown) [TA-glycerin ester, 2-thienylacetic acid glycerin ester]
- produced cephalothin [5]: 34 µg/mL
- 7-ACA→CET Conversion rate (%) ([6]; carrier Sepharose 4B): 82.0%
- Conversion rate (%) [7]: 73.7%

SMILES: COCCOCCOCCOCCOCCOCCOCCOCCOC(=O)Cc1cccs1 [TA-octaester methyl ether]
- 7-ACA→CET Conversion rate (%) ([8]; Elute 39 ml, 7-ACA 10 mg/ml, ester 142.2 mg/ml, 16 ml/hr): 84.8%
- 7-ACA→CET Conversion rate (%) ([8]; Elute 173 ml): 85.2%
- 7-ACA→CET Conversion rate (%) ([8]; Elute 306 ml): 85.3%
- 7-ACA→CET Conversion rate (%) ([8]; Elute 405 ml): 90.4%
- 7-ACA→CET Conversion rate (%) ([8]; Elute 731 ml): 85.7%
- 7-ACA→CET Conversion rate (%) ([8]; Elute 782 ml): 86.3%
- 7-ACA→CET Conversion rate (%) ([8]; Elute 917 ml): 88.5%
- 7-ACA→CET Conversion rate (%) ([8]; Elute 1089 ml): 86.9%
- 7-ACA→CET Conversion rate (%) ([8]; Elute 1156 ml): 86.6%
- 7-ACA→CET Conversion rate (%) ([8]; Elute 1294 ml): 82.5%
- 7-ACA→CET Conversion rate (%) ([8]; Elute 1432 ml): 83.1%
- 7-ACA→CET Conversion rate (%) ([8]; Elute 1534 ml): 82.0%
- 7-ACA→CET Conversion rate (%) ([6]; carrier Agar gel): 69.8%
- 7-ACA→CET Conversion rate (%) ([6]; carrier Sepharose 4B): 69.8%
- Conversion rate (%) [7]: 68.2%
- Conversion rate ([9]; 7-ACA 1 mg/ml, TA-ester 60, Agar gel): 80.5%
- Conversion rate ([9]; 7-ACA 1 mg/ml, TA-ester 114, Agar gel): 76.5%

SMILES: O=C(Cc1cccs1)OCCOCCOCCOCCOCCOCCOCCOCCO [TA-octaester, 2-thienylacetic acid octaethyleneglycol ester]
- produced cephalothin [5]: 22 µg/mL
- Conversion rate (%) [7]: 76.2%

SMILES: O=C(Cc1cccs1)OCCOCCOCCOCCOCCO [TA-pentaester]
- 7-ACA→CET Conversion rate (%) ([6]; carrier Sepharose 4B): 69.9%
- Conversion rate (%) [7]: 80.6%

SMILES: COCCOCCOCCOCCOC(=O)Cc1cccs1 [TA-tetraester methyl ether]
- 7-ACA→CET Conversion rate (%) ([6]; carrier Agar gel): 86.5%
- 7-ACA→CET Conversion rate (%) ([6]; carrier Sepharose 4B): 86.5%
- Conversion rate (%) [7]: 73.3%

SMILES: O=C(Cc1cccs1)OCCOCCOCCOCCO [TA-tetraester, 2-thienylacetic acid tetraethyleneglycol ester]
- produced cephalothin [5]: 26 µg/mL
- conversion rate (CET in eluate) ([10]; TA-tetraester 6 mg/ml): 28.6 to 32.5%
- conversion rate (CET in eluate) ([10]; TA-tetraester 30 mg/ml): 31.2 to 34.1%
- conversion rate (CET produced) [11]: about 30%
- 7-ACA→CET Conversion rate (%) ([6]; carrier Agar gel): 85.0%
- 7-ACA→CET Conversion rate (%) ([6]; carrier Sepharose 4B): 87.6%
- Conversion rate (%) [7]: 77.1%
- Conversion rate ([9]; 7-ACA 1 mg/ml, TA-ester 114, Sephalose 4B): 78.5%
- Conversion rate ([9]; 7-ACA 1 mg/ml, TA-ester 120, Sephalose 4B): 83.7%
- Conversion rate ([9]; 7-ACA 2 mg/ml, TA-ester 120, Sephalose 4B): 71.0%
- Conversion rate ([9]; 7-ACA 3 mg/ml, TA-ester 120, Sephalose 4B): 56.3%
- 7-ACA→CET Conversion rate (%) In eluate [12, 13]: 63.0%
- 7-ACA→CET Conversion rate (%) Isolated Na salt [12, 13]: 53.0%
- 7-ACA→CET Conversion rate (%) In eluate [12, 14]: 63.0%
- 7-ACA→CET Conversion rate (%) Isolated Na salt [12, 14]: 64.2%
- 7-ACA→CET Conversion rate (%) In eluate ([12]; TA-tetraester 25 mg/ml, pH 6.0): 62.8%
- 7-ACA→CET Conversion rate (%) Isolated Na salt ([12]; TA-tetraester 25 mg/ml, pH 6.0): 48.5%
- 7-ACA→CET Conversion rate (%) In eluate ([12]; TA-tetraester 25 mg/ml, pH 7.0): 72.9%
- 7-ACA→CET Conversion rate (%) Isolated Na salt ([12]; TA-tetraester 25 mg/ml, pH 7.0): 67.2%
- 7-ACA→CET Conversion rate (%) In eluate ([12]; TA-tetraester 25 mg/ml, pH 8.0): 71.6%
- 7-ACA→CET Conversion rate (%) Isolated Na salt ([12]; TA-tetraester 25 mg/ml, pH 8.0): 49.3%

SMILES: O=C(Cc1ccccc1)OCCOCCOCCOCCO [drawing 18]
- product detected and determined, B. Circulans M-1123-5 [1]: 36.2
- product detected and determined, A. globiformis M-345-2 [2]: 10.1
- product detected and determined, A. fragerum M-2183-1 [3]: 16.1

SMILES: O=C(Cc1ccccc1)OCCOCCOCCOCCO [drawing 20]
- product detected and determined, B. Circulans M-1123-5 [1]: Decomposition with penicillinase
- product detected and determined, A. globiformis M-345-2 [2]: 18.0
- product detected and determined, A. fragerum M-2183-1 [3]: 20.3
